Measurements published in US20250346588A1, “IMIDAZOPYRIDINE AND OXAZOLOPYRIDINE DERIVATIVES AND ANALOGS THEREOF, METHODS OF PREPARATION THEREOF, METHODS OF HIF-1/2A PATHWAY INHIBITION, AND INDUCTION OF FERROPTOSIS” (KUDA THERAPEUTICS, INC., priority 2022, published 2025).

How the values were obtained:
[1] = system: RCC10 or 786-0 cells with stable overexpression of empty vector or ISCA2; assay: Cell viability with ISCA2 overexpression; format: cell-based, human; conditions: 24h
ISCA2 = biological target: T1, ISCA2 (Homo sapiens, UniProt Q86U28); assay: Thermal shift assay with recombinant ISCA2 (SYPRO Orange); format: binding
T1 construct: His6 (N); made in house; host or cells: E. coli Rosetta (DE3)
T1 sequence (Q86U28 9-154): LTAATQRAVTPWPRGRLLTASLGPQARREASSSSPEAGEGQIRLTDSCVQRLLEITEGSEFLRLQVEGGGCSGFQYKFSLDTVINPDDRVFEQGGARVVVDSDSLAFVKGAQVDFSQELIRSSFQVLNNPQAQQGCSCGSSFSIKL
Protocol: Thermal shift assays were performed by monitoring the change in protein melting temperature (Tm) in the absence or presence of test compounds, using the hydrophobic protein binding dye, SYPRO Orange (S6650, Thermo Fisher Scientific), measured using the LightCycler 480 (Roche Life Sciences, Indianapolis, IN) according to the manufacturer's protocol. Recombinant ISCA2 was produced by expressing amino acid residues 9-154 of ISCA2 (ISCA2 lacking its mitochondrial localization sequence) in the pET28 vector containing an N-terminal His6 tag in Rosetta (DE3) competent cells (Novagen, Millipore Sigma). ISCA2 production was induced by treating ISCA2 transformed log phase cells with 0.25 mM IPTG for 4 hours at 18° C. ISCA2 was purified using Ni^2+ affinity purification according to standard protocols and eluted in 50 mM Tris-C1 pH7.4, 150 mM NaCl, 5 mM DTT. Thermal shift assays were performed in 384-well plates using 1 μl of a 10× concentration of SYPRO Orange, 8 μl of ISCA2 (4 μg protein) and 1 μl of 1-2 mM stock of test compound per well. The LightCycler was used according to the following setup: LightCycler 480 Instrument Temperature Setup: First target of 20° C., with a Hold of 15 seconds; second target of 95° C., with Acquisition Mode of Continuous, and 10 acquisitions per degree c.; and third target of 20° C., with a Hold of 15 seconds. Tms were determined using Roche Protein Melting Analysis Software. Representative data are shown in FIGS. 6 and 7 using compound 1 and 26HCL at 200 and 100 µM final concentration respectively. […] These findings are supported by studies showing that re-expression of VHL (which increases ISCA2) and overexpression of ISCA2 itself, promotes the resistance of cells to the compounds (shown in FIG. 8).

IRP2 and GPX4 = assay: Western blots for cellular iron-sensing machinery (IRP2, GPX4); format: cell-based, human
Protocol: (§1) Western blots were performed to determine the effects of the compounds on levels of HIF-2α and other relevant proteins, whereas qPCR was performed to determine the effects of compounds on transcript levels of HIF target genes. 786-0 or RCC10 cells were plated at 1×10E5 cells/well in 2 ml DMEM with 10% FBS/well in 6-well tissue culture plates. Cells were allowed to adhere overnight in a humidified incubator at 37° C. with 5% CO2, after which the appropriate concentrations of compounds in DMSO were added. DMSO concentrations were kept constant in all wells. After 24 h exposure to the compounds, cells were lysed and subjected to western blotting according to standard protocols. Antibodies for HIF-1α and HIF-2α and GAPDH were purchased from Cell Signaling Technology (Danvers, MA), whereas antibodies to IRP2 and pVHL were from Santa Cruz Biotechnology (Dallas, TX), and GPX4 antibody was from R&D Systems, Inc (Minneapolis, MN). Representative data in FIG. 2 show a dose-dependent effect of compounds in decreasing HIF-1/2α. Compounds also impact cellular iron sensing given by increased IRP2, which taken together indicate that cells sense decreased amounts of available iron, which triggers the iron starvation response initiated by IRP2 stabilization. Representative data shown in FIG. 3D show a dose dependent effect of the compounds on GPX4, which may indicate decreased resistance to ferroptosis. […] The data also show increased expression of ISCA2 with pVHL re-expression.

[2] = system: RCC4 or 786-0 cells±pVHL re-expression; assay: Cell viability with pVHL re-expression; format: cell-based, human; conditions: 48h
HIF-1α and HIF-2α = assay: Western blots for HIF-1α and HIF-2α in ccRCC cells; format: cell-based, human; conditions: 786-0 or RCC10 ccRCC cells, 24h, relative to GAPDH
Protocol: as §1

Compound: COc1ccc(-c2nnc(Nc3nc4c(OC)nccc4[nH]3)o2)cc1OC [Compound 26HCL, N-(4-Methoxy-1H-imidazo[4,5-c]pyridin-2-yl)-5-(3,4-dimethoxyphenyl)-1,3,4-oxadiazol-2-amine]
- effect of ISCA2 overexpression on cell viability response to compound [1]: ISCA2 overexpression promotes resistance
- Tm of ISCA2 in compound-treated wells (ISCA2; 100 μM compound, control wells 55.02±0.2): 56.3±0.02 °C
- change in melting temperature of ISCA2 (in words) (ISCA2; compound 1 and 26HCL at 200 and 100 μM final concentration respectively): significant change in melting temperature of ISCA2
- effect on IRP2 protein (Western blot) (IRP2 and GPX4; 786-0 or RCC10 ccRCC cells, 24h, relative to GAPDH): increases IRP2
- effect on IRP2 and GPX4 protein (Western blot) (IRP2 and GPX4; higher concentrations of compound, FIG. 3D): decrease in IRP2 and GPX4
- effect of pVHL re-expression on cell viability response to compound [2]: re-expression of pVHL promotes resistance
- effect on HIF-1α and HIF-2α protein (Western blot) (HIF-1α and HIF-2α): decreases HIF-1α and HIF-2α
